# Assay results taken from article PMC1988858, “Nanosensor Detection of an Immunoregulatory Tryptophan Influx/Kynurenine Efflux Cycle” (PLoS Biology, 2007).
# Key:
# [1] = system: COS-7 cells; test: Perfusion ratio imaging of tryptophan uptake and exchange in COS-7 cells expressing FLIPW-CTYT (LAT1-like exchanger); assay type: cell-based; settings: for Effect on uptake rate of 100 μM L-tryptophan: COS-7, inhibitors at 5 mM; for Tryptophan export induced by extracellular tryptophan degradation product: tryptophan-preloaded COS-7 cells, DL-HK 200–1,000 μM; for Tryptophan export from the cytosol promoted by extracellular amino acid: COS-7 loaded with tryptophan, amino acid at 100 μM
# Method: (§1) Cells were cultured at 37 °C and 5% CO2.
# Ratio imaging was performed on an inverted fluorescence microscope (DM IRE2, Leica; http://www.leica.com) with a Quant EM digital camera (Photometrics; http://www.photomet.com) and 20× oil immersion, 63× water immersion lenses (HC PL APO 20×/0.7 or HCX PL APO, Leica). […] A Lambda DG4 (Sutter Instruments; http://www.sutter.com) provided excitation light. Images were acquired within the linear detection range of the camera and exposure times varied between 50 and 200 ms, depending on the expression level, with software binning between 2 and 3. Fluorescence intensities for eCFP and Venus were typically in the range of 6,000–8,000 and 12,000–16,000, respectively. Typical background values were around 1,000. Cells were perfused with Tyrode's buffer supplemented with ligands at flow rates of 1.0 ml/min in a vacuum chamber (Vacu-Cell VC-MPC-TW, C&L Instruments; http://www.fluorescence.com/) with a total volume of 0.1 ml. Buffers were exchanged using an eight-way automated ValveBank (AutoMate; http://www.autom8.com/). Inhibitors BCH and α-(methylamino)isobutyric acid (MeIAB) were used at 5 mM concentrations. For determination of the substrate specificity of tryptophan exchange, all 20 amino acids were tested at 100 μM concentrations.
# [2] = system: KB cells; test: Perfusion ratio imaging of LAT1-mediated tryptophan uptake and exchange in KB cells expressing FLIPW-CTYT; assay type: cell-based, human; settings: for Export of intracellular tryptophan upon perfusion (FRET ratio decrease): 100 μM L-His, 200 μM DL-K, 200 μM DL-HK, 1,000 μM HAA
# Method: as §1
# Ratio imaging was performed on an inverted fluorescence microscope (DM IRE2, Leica; http://www.leica.com) with a Quant EM digital camera (Photometrics; http://www.photomet.com) and 20× oil immersion, 63× water immersion lenses (HC PL APO 20×/0.7 or HCX PL APO, Leica). Dual emission intensity ratios were simultaneously recorded using a DualView with an OI-5-EM filter set (eCFP 480/30; eYFP 535/40; Optical Insights; http://www.optical-insights.com) and Slidebook 4.2 (Intelligent Imaging Innovations; http://www.intelligent-imaging.com/). A Lambda DG4 (Sutter Instruments; http://www.sutter.com) provided excitation light. Images were acquired within the linear detection range of the camera and exposure times varied between 50 and 200 ms, depending on the expression level, with software binning between 2 and 3. Fluorescence intensities for eCFP and Venus were typically in the range of 6,000–8,000 and 12,000–16,000, respectively. Typical background values were around 1,000. Cells were perfused with Tyrode's buffer supplemented with ligands at flow rates of 1.0 ml/min in a vacuum chamber (Vacu-Cell VC-MPC-TW, C&L Instruments; http://www.fluorescence.com/) with a total volume of 0.1 ml. Buffers were exchanged using an eight-way automated ValveBank (AutoMate; http://www.autom8.com/). Inhibitors BCH and α-(methylamino)isobutyric acid (MeIAB) were used at 5 mM concentrations. For determination of the substrate specificity of tryptophan exchange, all 20 amino acids were tested at 100 μM concentrations. Analyses were repeated at least three times with similar results.
# [3] = biological target: T1, FLIPW-CTYT (Escherichia coli, UniProt P0A881); test: In vitro FRET ligand titration of FLIPW-CTYT; assay type: binding, E. coli; settings: for FLIPW-CTYT FRET response or interference with tryptophan binding: in vitro, unpublished data; for Kd: 20 mM MOPS pH 7.0
# T1 construct: made in house; host or cells: E. coli BL21(DE3)gold
# Method: (§2) The eCFP emission used for the ratio calculation was determined at 485 nm. Protein was diluted to give Venus readouts of 20,000–30,000 at a manual gain of between 70–75. By using the change in FRET ratio upon binding of ligand, affinity constants (K d) were determined by fitting the titration curves to a single-site binding isotherm: [drawing 1] with [L], ligand concentration; n, number of equal binding sites; R, ratio; R apo, ratio in the absence of ligand; and R sat, ratio at saturation with ligand. Three independent protein preparations were analyzed and each protein preparation was analyzed in triplicate.
# [4] = biological target: T2, FLIPW-TCTY (Escherichia coli, UniProt P0A881); test: FRET ratio (528/485 nm, eCFP excitation 433 nm) titration of purified sensor with L-tryptophan in 20 mM MOPS, pH 7.0, fitted to a single-site binding isotherm.; settings: n = 3
# T2 construct: gene trpR
# Method: as §2
# [5] = system: LAT1-like amino acid exchanger; test: Velocity of intracellular FLIPW-CTYT FRET response by single-cell imaging versus external L-tryptophan in COS-7 cells perfused with Tyrode's buffer, histidine as counterexchange substrate, Michaelis-Menten fit.; assay type: cell-based; settings: read-out: affinity of the cells for combined uptake and metabolism of tryptophan
# Method: Upon perfusion with 100 μM L-tryptophan, the FRET ratio increased instantaneously, corresponding to rising levels of cytosolic tryptophan. […] This way, cells could be repeatedly loaded with tryptophan and unloaded using histidine (Figure 4A). […] Na^+ independence and BCH sensitivity are characteristic of the transport properties of LAT1- and LAT2-like amino acid counterexchangers. […] LAT2 is expressed in the proximal tubule of the kidney, so it might be expressed in COS-7 cells. In addition, LAT1 is expressed in various human tumor cell lines and, consequently, is likely to be present in COS-7 cells as well.
# (§3) According to the FRET theory, an increase in Venus signal is accompanied by a decrease in eCFP signal. Ratio defined as fluorescence intensity quotient obtained with emission filters 535/40 nm over 480/30 nm. […] Error bars indicate standard deviation. […]
# Ratio imaging was performed on an inverted fluorescence microscope (DM IRE2, Leica; http://www.leica.com) with a Quant EM digital camera (Photometrics; http://www.photomet.com) and 20× oil immersion, 63× water immersion lenses (HC PL APO 20×/0.7 or HCX PL APO, Leica). Dual emission intensity ratios were simultaneously recorded using a DualView with an OI-5-EM filter set (eCFP 480/30; eYFP 535/40; Optical Insights; http://www.optical-insights.com) and Slidebook 4.2 (Intelligent Imaging Innovations; http://www.intelligent-imaging.com/). […]
# [6] = biological target: T3, LAT1 (Homo sapiens, UniProt Q01650); test: Velocity of intracellular FLIPW-CTYT FRET response by single-cell imaging versus external L-tryptophan in human KB cells perfused with Tyrode's buffer, histidine as counterexchange substrate, Michaelis-Menten fit.; assay type: cell-based; settings: read-out: affinity of KB cells for combined tryptophan uptake and metabolism under perfusion conditions
# T3 construct: gene SLC7A5; endogenous transporter of KB cells expressing cytosolic FLIPW-CTYT sensor
# T3 sequence (Q01650 whole entry, the tested form may be a part): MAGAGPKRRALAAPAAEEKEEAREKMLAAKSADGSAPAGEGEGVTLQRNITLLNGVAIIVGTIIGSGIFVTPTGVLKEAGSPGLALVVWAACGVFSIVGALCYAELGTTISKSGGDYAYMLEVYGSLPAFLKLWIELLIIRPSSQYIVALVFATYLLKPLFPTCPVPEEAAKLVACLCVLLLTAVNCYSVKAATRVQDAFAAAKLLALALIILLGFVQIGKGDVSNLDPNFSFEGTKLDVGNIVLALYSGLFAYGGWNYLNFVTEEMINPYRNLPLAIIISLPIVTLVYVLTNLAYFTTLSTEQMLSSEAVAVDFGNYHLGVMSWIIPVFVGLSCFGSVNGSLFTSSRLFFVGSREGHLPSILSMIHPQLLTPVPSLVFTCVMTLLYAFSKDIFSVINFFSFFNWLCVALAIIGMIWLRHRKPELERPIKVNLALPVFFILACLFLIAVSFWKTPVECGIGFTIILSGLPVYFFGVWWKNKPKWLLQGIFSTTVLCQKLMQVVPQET
# T3 sequence (P08195 103-630 partner): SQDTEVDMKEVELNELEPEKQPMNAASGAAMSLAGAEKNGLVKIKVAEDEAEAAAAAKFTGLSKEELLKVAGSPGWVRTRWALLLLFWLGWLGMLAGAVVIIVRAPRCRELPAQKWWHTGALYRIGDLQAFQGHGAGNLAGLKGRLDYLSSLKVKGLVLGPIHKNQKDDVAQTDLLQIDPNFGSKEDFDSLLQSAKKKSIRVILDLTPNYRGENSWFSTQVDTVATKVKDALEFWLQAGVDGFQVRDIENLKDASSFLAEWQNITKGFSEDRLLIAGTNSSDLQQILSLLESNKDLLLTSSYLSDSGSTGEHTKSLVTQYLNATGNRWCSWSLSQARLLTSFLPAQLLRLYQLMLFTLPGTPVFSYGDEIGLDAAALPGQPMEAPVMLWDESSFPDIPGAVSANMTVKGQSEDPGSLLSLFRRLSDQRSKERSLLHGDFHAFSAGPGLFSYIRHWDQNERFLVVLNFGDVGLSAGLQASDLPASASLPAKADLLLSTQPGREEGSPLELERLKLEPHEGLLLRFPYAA
# Method: KB cells originate from a human oral squamous cell carcinoma and express only LAT1 for uptake of neutral amino acids as shown by reverse-transcriptase (RT)-PCR [37] and RNA interference (RNAi).
# as §3, with “nm. (B) Effect of 5 mM BCH inhibitor on the uptake rate of 100 μM L-tryptophan. Error bars indicate standard deviation.” for “nm.”
# Ratio imaging was performed on an inverted fluorescence microscope (DM IRE2, Leica; http://www.leica.com) with a Quant EM digital camera (Photometrics; http://www.photomet.com) and 20× oil immersion, 63× water immersion lenses (HC PL APO 20×/0.7 or HCX PL APO, Leica). Dual emission intensity ratios were simultaneously recorded using a DualView with an OI-5-EM filter set (eCFP 480/30; eYFP 535/40; Optical Insights; http://www.optical-insights.com) and Slidebook 4.2 (Intelligent Imaging Innovations; http://www.intelligent-imaging.com/). […] Fluorescence intensities for eCFP and Venus were typically in the range of 6,000–8,000 and 12,000–16,000, respectively. […]
# [7] = biological target: T4, FLIPW-CTY (Escherichia coli, UniProt P0A881); test: In vitro FRET ligand titration of FLIPW-CTY; assay type: binding, E. coli; settings: for Kd: 20 mM MOPS pH 7.0, read-out: Affinity of FLIPW-CTY for tryptophan substrates
# T4 construct: made in house; host or cells: E. coli BL21(DE3)gold
# Method: as §2
# [8] = system: COS-7 cells; settings: read-out: Apparent affinity constant KM for combined transport and metabolism; COS-7, 96-well microplate, Tyrode's buffer
# Method: COS-7 cells were grown in Dulbecco's modified Eagle's medium (high glucose; DMEM, Gibco; http://www.invitrogen.com) with 10% fetal calf serum and 50 units (U)/ml penicillin and 50 μg/ml streptomycin (Gibco). […] Cells were cultured at 37 °C and 5% CO2. For imaging, cells were cultured in 8-well LabTekII German tissue culture glass slides (Nalge Nunc International; http://www.nalgenunc.com) and transiently transfected at 50%–70% confluence using Lipofectamine 2000 Reagent (Invitrogen) in Opti-MEM I reduced serum medium (Gibco). After transfection, cells were cultured for 16 h in Opti-MEM I followed by 3 h in growth medium prior to imaging.
# Adherent COS-7 cells in 96-well microplates were washed once with 100 μl Tyrode's buffer (119 mM NaCl, 2.5 mM KCl, 2 mM CaCl2, 2 mM MgCl2, 25 mM HEPES, 30 mM glucose, pH 7.3–7.4). The initial FRET ratio was measured by recording the eCFP and Venus emissions at 485 nm and 528 nm, respectively, after excitation of eCFP at 433 nm in a Safire monochromator microplate reader (Tecan). Standard deviation of the initial ratios was less than 10%. After addition of 100 μl tryptophan in Tyrode's buffer the FRET ratio was recorded with 2-min intervals for up to 2 h. Uptake rates were determined from linear parts in the initial FRET change and fitted with the nonlinear regression program Origin 6.1 (OriginLab; http://www.originlab.com).
# [9] = system: human LAT1; parameters: method as in PMID 11557028; settings: LAT1 expressed in oocytes, static conditions; cited from earlier work
smiles,measurement,setting,value
"NC1(C(=O)O)CC2CCC1C2 (centres unmarked) [BCH, 2-aminobicyclo-(2,2,1)-heptane-2-carboxylic acid]",Effect on uptake rate of 100 μM L-tryptophan,[1],decreased the uptake of tryptophan
same,Effect on LAT1-mediated uptake of 100 μM L-tryptophan,[2]; 5 mM BCH,almost completely inhibited
"Nc1c(O)cccc1C(=O)O [HAA, hydroxy-anthranilic acid]",FLIPW-CTYT FRET response or interference with tryptophan binding,[3],did not result in a FLIPW-CTYT FRET response
same,Tryptophan export induced by extracellular tryptophan degradation product,[1],did not result in tryptophan export
same,Export of intracellular tryptophan upon perfusion (FRET ratio decrease),[2],not
"Nc1c(O)cccc1C(=O)CC(N)C(=O)O (centres unmarked) [HK, 3-hydroxy-kynurenine]",FLIPW-CTYT FRET response or interference with tryptophan binding,[3],did not result in a FLIPW-CTYT FRET response
same,Tryptophan export induced by extracellular tryptophan degradation product,[1],tryptophan export
same,Export of intracellular tryptophan upon perfusion (FRET ratio decrease),[2],exported
"Nc1ccccc1C(=O)CC(N)C(=O)O (centres unmarked) [K, kynurenine]",FLIPW-CTYT FRET response or interference with tryptophan binding,[3],did not result in a FLIPW-CTYT FRET response
same,Tryptophan export induced by extracellular tryptophan degradation product,[1],tryptophan export
same,Export of intracellular tryptophan upon perfusion (FRET ratio decrease),[2],exported
N[C@@H](Cc1c[nH]cn1)C(=O)O [L-histidine],Tryptophan export from the cytosol promoted by extracellular amino acid,[1],export of tryptophan from the cytosol
same,Export of intracellular tryptophan upon perfusion (FRET ratio decrease),[2],decreased
N[C@@H](Cc1c[nH]c2ccccc12)C(=O)O [L-tryptophan],Kd,[4],20 µM
same,Km,[5],2.6 µM
same,Km,[6],5.1 µM
CNC(C)(C)C(=O)O [N-(methylamino)isobutyric acid],Effect on uptake rate of 100 μM L-tryptophan,[1],did not decrease uptake rates
"N[C@H](Cc1c[nH]c2ccccc12)C(=O)O [d-tryptophan, D-tryptophan]",Kd,[7],3100 ± 300 µM
same,Concentration for decrease of FRET ratio relative to L-tryptophan,"[7]; titration of FLIPW-CTY, higher concentrations than L-tryptophan",about 5 fold
same,Kd,[3],1280 ± 100 µM
CC[C@H](C)[C@H](N)C(=O)O [isoleucine],Tryptophan export from the cytosol promoted by extracellular amino acid,[1],able to promote tryptophan export
"N[C@@H](Cc1c[nH]c2ccc(O)cc12)C(=O)O [l-5-hydroxy-tryptophan, 5-hydroxy-L-tryptophan]",Kd,[7],6000 ± 800 µM
"Cc1ccc2[nH]cc(C[C@H](N)C(=O)O)c2c1 [l-5-methyl-tryptophan, 5-methyl-L-tryptophan]",Kd,[7],60 ± 10 µM
same,Kd,[3],25 ± 2 µM
"N[C@@H](Cc1c[nH]c2ccccc12)C(=O)O [l-tryptophan, L-tryptophan]",Kd,[7],220 ± 20 µM
same,Kd,[3],100 ± 14 µM
same,Affinity of the cells for combined uptake and metabolism of tryptophan,"[1]; COS-7, perfusion",2.6 ± 1.1 µM
same,Affinity for combined tryptophan uptake and metabolism,[2]; perfusion conditions,5.1 ± 1.0 µM
same,Km,[8],0.88 ± 0.27 µM
same,Reported affinity of human LAT1 for tryptophan uptake,[9],21 µM
CC(C)C[C@H](N)C(=O)O [leucine],Tryptophan export from the cytosol promoted by extracellular amino acid,[1],able to promote tryptophan export
CSCC[C@H](N)C(=O)O [methionine],Tryptophan export from the cytosol promoted by extracellular amino acid,[1],able to promote tryptophan export
N[C@@H](Cc1ccccc1)C(=O)O [phenylalanine],Tryptophan export from the cytosol promoted by extracellular amino acid,[1],able to promote tryptophan export
N[C@@H](Cc1ccc(O)cc1)C(=O)O [tyrosine],Tryptophan export from the cytosol promoted by extracellular amino acid,[1],able to promote tryptophan export
CC(C)[C@H](N)C(=O)O [valine],Tryptophan export from the cytosol promoted by extracellular amino acid,[1],able to promote tryptophan export
